For the test, the target named is T1, human orexin-2 (hOX2) receptor (Homo sapiens, UniProt O43614).
T1 construct: expressed in transfected cells
T1 sequence (O43614 1-444): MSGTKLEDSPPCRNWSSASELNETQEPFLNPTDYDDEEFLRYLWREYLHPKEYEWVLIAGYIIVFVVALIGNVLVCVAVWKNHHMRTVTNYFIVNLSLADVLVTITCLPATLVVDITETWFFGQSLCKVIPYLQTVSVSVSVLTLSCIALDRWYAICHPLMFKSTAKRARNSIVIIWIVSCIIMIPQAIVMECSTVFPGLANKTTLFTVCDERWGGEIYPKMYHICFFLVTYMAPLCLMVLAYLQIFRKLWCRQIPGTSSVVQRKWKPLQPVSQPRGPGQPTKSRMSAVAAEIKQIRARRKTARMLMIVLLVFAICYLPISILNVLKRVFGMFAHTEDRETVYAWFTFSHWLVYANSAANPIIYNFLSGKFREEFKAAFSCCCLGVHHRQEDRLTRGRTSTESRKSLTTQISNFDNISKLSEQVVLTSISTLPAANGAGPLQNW
The test is described as follows: Intracellular Ca2+ mobilization assay (FLIPR), CHO(dHFr-) cells expressing hOX2, orexin-A as agonist. In kind it is cell-based. The following applies: antagonist Kb=IC50/(1+[A]/EC50); orexin-A at EC80; CHO(dHFr-)-OX2R cells; antagonist applied 25 min before agonist. The method, then:
Intracellular Ca^2+ Mobilization Assay
The Chinese Hamster Ovary (dHFr-) mutant cell line stably expressing human orexin-1 (hOX1) or human orexin-2 (hOX2) receptors were maintained in Dulbecco's Modified Eagle Medium (1×) with GlutaMax™1, 4500 mg/L D-Glucose and Sodium Pyruvate (Catalog No. 31966-021, Invitrogen, Carlsbad, Calif.), 5% dialyzed fetal calf serum (Catalog No. 26400-044), 100 μg/ml penicillin and 100 μg/ml streptomycin. The cells were seeded at 5×10^4 cells/well in the poly-D-lysine treated, 96-well, black/clear-bottomed plates (Catalog No. BD356640, BD Biosciences, Palo Alto, Calif.). 24 h later, the cells were loaded for 1 h at 37° C. with 4 μM Flou-4 acetoxymethyl ester (Catalog No. F-14202, Molecular Probes, Eugene, Oreg.) in FLIPR buffer (1×HBSS, 20 mM HEPES, 2.5 mM Probenecid). Hanks' Balanced Salt Solution (HBSS) (10×) (catalog No. 14065-049) and HEPES (1M) (catalog No. 15630-056) were purchased from Invitrogen, Carlsbad, Calif. Probenecid (250 mM) (catalog No. P8761) was from Sigma, Buchs, Switzerland. The cells were washed five times with FLIPR buffer to remove excess dye and intracellular calcium mobilization, [Ca^2−]i were measured using a Fluorometric Imaging Plate Reader (FLIPR-96, Molecular Devices, Menlo Park, Calif.) as described previously (Malherbe et al., Mol. Pharmacol., 64, 823-832, 2003). Orexin A (catalog No. 1455, Toris Cookson Ltd, Bristol, UK) was used as agonist. Orexin A ([…] stock solution in DMSO) was diluted in FLIPR buffer+0.1% BSA. The EC50 and EC80 values of orexin-A were measured daily from standard agonist concentration-response curves in CHO(dHFr-)-OX1R and -OX2R cell lines. All compounds were dissolved in 100% DMSO. Inhibition curves were determined by addition of 11 concentrations (0.0001-10 μM) of inhibitory compounds and using EC80 value of orexin-A as agonist (a concentration which gave 80% of max agonist response, determined daily). The antagonists were applied 25 min (incubation at 37° C.) before the application of the agonist. Responses were measured as peak increase in fluorescence minus basal, normalized to the maximal stimulatory effect induced by EC80 value of orexin-A or orexin-B. Inhibition curves were fitted according to the Hill equation: y=100/(1+(x/IC50)^nH), where nH=slope factor using Excel-fit 4 software (Microsoft).
Kb values were calculated according to the following equation Kb=IC50/(1+[A]/EC50) where A is the concentration of agonist added which is very close to agonist EC80 value, and IC50 and EC50 values were derived from the antagonist inhibition and orexin-A or B agonist curves, respectively.
(In general: Calcium flux is commonly read through the fluorescence of an indicator in the cells.)
By Kb is commonly meant the equilibrium dissociation constant of an antagonist, usually derived from a functional assay. Read a low Kb as a more potent antagonist. `Cc1ccc(C(F)(F)F)c(C(=O)N2CC[C@@H](Nc3nc4cc(F)c(F)cc4s3)C2)c1` [Example 202, [(R)-3-(5,6-Difluoro-benzothiazol-2-ylamino)-pyrrolidin-1-yl]-(5-methyl-2-trifluoromethyl-phenyl)-methanone] registered a Kb of 0.0046 µM. Under `COc1cccc(OC)c1C(=O)N1CC[C@@H](Nc2nc3cccc(F)c3s2)C1` [Example 100, (2,6-Dimethoxy-phenyl)-[(R)-3-(7-fluoro-benzothiazol-2-ylamino)-pyrrolidin-1-yl]-methanone] stands 0.01 µM. Next, `O=C(c1ccccc1OC(F)(F)C(F)F)N1CC[C@@H](Nc2nc3cc(F)cc(F)c3s2)C1` [Example 132, [(R)-3-(5,7-Difluoro-benzothiazol-2-ylamino)-pyrrolidin-1-yl]-[2-(1,1,2,2-tetrafluoro-ethoxy)-phenyl]-methanone]: 0.016 µM. `Cc1nc(C(=O)N2CC[C@@H](Nc3cnc4cc(Cl)ccc4n3)C2)c(-c2ccccc2)s1` [Example 181, [(R)-3-(6-Chloro-quinoxalin-2-ylamino)-pyrrolidin-1-yl]-(2-methyl-5-phenyl-thiazol-4-yl)-methanone] had a Kb of 0.028 µM. In the case of `Cc1ccc(C(F)(F)F)c(C(=O)N2CC[C@@H](Nc3cnc4ccccc4n3)C2)c1` [Example 185, (5-Methyl-2-trifluoromethyl-phenyl)-[(R)-3-(quinoxalin-2-ylamino)-pyrrolidin-1-yl]-methanone], the Kb stood at 0.0075 µM. Next, `Cc1noc(-c2ccccc2C(=O)N2CC[C@@H](Nc3cnc4cc(Cl)ccc4n3)C2)n1` [Example 178, [(R)-3-(6-Chloro-quinoxalin-2-ylamino)-pyrrolidin-1-yl]-[2-(3-methyl-[1,2,4]oxadiazol-5-yl)-phenyl]-methanone]: 0.0244 µM; `O=C(c1ccccc1-c1ccsc1)N1CC[C@@H](Nc2nc3ccc(Cl)cc3o2)C1` [Example 84, [(R)-3-(6-Chloro-benzooxazol-2-ylamino)-pyrrolidin-1-yl]-(2-thiophen-3-yl-phenyl)-methanone]: 0.0056 µM. Compound `Cc1noc(-c2ccccc2C(=O)N2CC[C@@H](Nc3nc4c(F)cccc4s3)C2)n1` [Example 126, [(R)-3-(4-Fluoro-benzothiazol-2-ylamino)-pyrrolidin-1-yl]-[2-(3-methyl-[1,2,4]oxadiazol-5-yl)-phenyl]-methanone] came in with a Kb of 0.0144 µM. In the case of `COc1ccc(C)cc1C(=O)N1CC[C@@H](Nc2cnc3cc(F)c(F)cc3n2)C1` [Example 171, [(R)-3-(6,7-Difluoro-quinoxalin-2-ylamino)-pyrrolidin-1-yl]-(2-methoxy-5-methyl-phenyl)-methanone], the Kb was 0.0245 µM. The compound `Cc1onc(-c2ccccc2)c1C(=O)N1CC[C@@H](Nc2nc3cc(F)cc(F)c3s2)C1` [Example 134, [(R)-3-(5,7-Difluoro-benzothiazol-2-ylamino)-pyrrolidin-1-yl]-(5-methyl-3-phenyl-isoxazol-4-yl)-methanone] registered a Kb of 0.0228 µM. `Cc1onc(-c2ccccc2)c1C(=O)N1CC[C@@H](Nc2cnc3cc(Cl)ccc3n2)C1` [Example 177, [(R)-3-(6-Chloro-quinoxalin-2-ylamino)-pyrrolidin-1-yl]-(5-methyl-3-phenyl-isoxazol-4-yl)-methanone] yielded a Kb of 0.0423 µM. In turn, `O=C(c1ccccc1OC(F)(F)F)N1CC[C@@H](Nc2nc3ccc(F)c(F)c3o2)C1` [Example 148, [(R)-3-(6,7-Difluoro-benzooxazol-2-ylamino)-pyrrolidin-1-yl]-(2-trifluoromethoxy-phenyl)-methanone] registered a Kb of 0.0386 µM. Under `Cc1ccc(C(F)(F)F)c(C(=O)N2CC[C@@H](Nc3nc4ccc(Cl)cc4o3)C2)c1` [Example 68, [(R)-3-(6-Chloro-benzooxazol-2-ylamino)-pyrrolidin-1-yl]-(5-methyl-2-trifluoromethyl-phenyl)-methanone] stands 0.0018 µM.

Turning to `O=C(c1ccccc1-n1cccc1)N1CC[C@@H](Nc2nc3ccc(Cl)cc3o2)C1` [Example 28, [(R)-3-(6-Chloro-benzooxazol-2-ylamino)-pyrrolidin-1-yl]-(2-pyrrol-1-yl-phenyl)-methanone], the Kb was 0.0096 µM.

`COc1cccc(OC)c1C(=O)N1CCC(Nc2nc3ccc(Cl)cc3o2)C1` (centres unmarked) [Example 1, [3-(6-Chloro-benzooxazol-2-ylamino)-pyrrolidin-1-yl]-(2,6-dimethoxy-phenyl)-methanone] displayed a Kb of 0.0279 µM. Compound `CCOc1ccccc1C(=O)N1CC[C@@H](Nc2nc3ccc(Cl)cc3o2)C1` [Example 52, [(R)-3-(6-Chloro-benzooxazol-2-ylamino)-pyrrolidin-1-yl]-(2-ethoxy-phenyl)-methanone] had a Kb of 0.0249 µM. The Kb values of the last two compounds are within 1.5-fold of each other.

The compound `COc1cccc(OC)c1C(=O)N1CC[C@@H](Nc2nc3c(F)cccc3s2)C1` [Example 94, (2,6-Dimethoxy-phenyl)-[(R)-3-(4-fluoro-benzothiazol-2-ylamino)-pyrrolidin-1-yl]-methanone] yielded a Kb of 0.0091 µM. `CCOc1cccc(OCC)c1C(=O)N1CC[C@@H](Nc2nc3ccc(Cl)cc3o2)C1` [Example 73, [(R)-3-(6-Chloro-benzooxazol-2-ylamino)-pyrrolidin-1-yl]-(2,6-diethoxy-phenyl)-methanone] displayed a Kb of 0.0012 µM. Against the preceding compound, the Kb is about 7.6-fold lower.

With `O=C(c1c(F)cccc1N1CCCC1)N1CC[C@@H](Nc2nc3ccc(Cl)cc3o2)C1` [Example 90, [(R)-3-(6-Chloro-benzooxazol-2-ylamino)-pyrrolidin-1-yl]-(2-fluoro-6-pyrrolidin-1-yl-phenyl)-methanone], the Kb was determined as 0.0186 µM. Compound `Cc1onc(-c2ccccc2)c1C(=O)N1CC[C@@H](Nc2nc3ccc(Cl)cc3o2)C1` [Example 67, [(R)-3-(6-Chloro-benzooxazol-2-ylamino)-pyrrolidin-1-yl]-(5-methyl-3-phenyl-isoxazol-4-yl)-methanone] returned a Kb of 0.0051 µM. Under `Cc1cc(C(=O)N2CC[C@@H](Nc3nc4ccc(Cl)cc4o3)C2)c(C(F)(F)F)o1` [Example 86, [(R)-3-(6-Chloro-benzooxazol-2-ylamino)-pyrrolidin-1-yl]-(5-methyl-2-trifluoromethyl-furan-3-yl)-methanone] stands 0.0169 µM. In turn, `COc1cccc(OC)c1C(=O)N1CC[C@@H](Nc2cnc3cc(F)c(F)cc3n2)C1` [Example 92, [(R)-3-(6,7-Difluoro-quinoxalin-2-ylamino)-pyrrolidin-1-yl]-(2,6-dimethoxy-phenyl)-methanone] had a Kb of 0.0029 µM.

On to `O=C(c1ccccc1OC(F)(F)F)N1CC[C@@H](Nc2nc3ccc(F)cc3s2)C1` [Example 113, [(R)-3-(6-Fluoro-benzothiazol-2-ylamino)-pyrrolidin-1-yl]-(2-trifluoromethoxy-phenyl)-methanone], for which the Kb amounted to 0.0217 µM. Regarding `O=C(c1ccccc1OC(F)(F)F)N1CC[C@@H](Nc2cnc3ccccc3n2)C1` [Example 183, [(R)-3-(Quinoxalin-2-ylamino)-pyrrolidin-1-yl]-(2-trifluoromethoxy-phenyl)-methanone], the Kb is 0.02 µM. The Kb values of the last two compounds are within 1.5-fold of each other. For the compound `O=C(c1ccccc1OC(F)(F)C(F)F)N1CC[C@@H](Nc2cnc3cc(F)c(F)cc3n2)C1` [Example 167, [(R)-3-(6,7-Difluoro-quinoxalin-2-ylamino)-pyrrolidin-1-yl]-[2-(1,1,2,2-tetrafluoro-ethoxy)-phenyl]-methanone], the Kb turned out to be 0.001 µM. In turn, `COc1cccc(OC)c1C(=O)N1CC[C@@H](Nc2nc3cccc(Cl)c3o2)C1` [Example 97, [(R)-3-(7-Chloro-benzooxazol-2-ylamino)-pyrrolidin-1-yl]-(2,6-dimethoxy-phenyl)-methanone] gave a Kb of 0.0063 µM.
